Assay results taken from US8802700B2 (Vertex Pharmaceuticals Incorporated, priority 2010, dated 2014).

Target: T1, ΔF508-CFTR (Homo sapiens, UniProt P13569, DEL508-508)
T1 construct: expressed in transfected cells
Assay: Membrane potential optical assay (FRET voltage-sensor dyes, VIPR), identification of potentiator compounds
Format: cell-based
Details: Table 3; assay not given
Procedure, shortened: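 Potentiator screen measured membrane potential via FRET between CC2-DMPE donor and DiSBAC2(3), read on VIPR II. Compound went in with the first addition of chloride-free gluconate bath; cells were ΔF508-CFTR-expressing NIH3T3 mouse fibroblasts, temperature-corrected at 27 °C for 24 h.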

T1 sequence (P13569 with tags, fused parts or gaps DEL508-508): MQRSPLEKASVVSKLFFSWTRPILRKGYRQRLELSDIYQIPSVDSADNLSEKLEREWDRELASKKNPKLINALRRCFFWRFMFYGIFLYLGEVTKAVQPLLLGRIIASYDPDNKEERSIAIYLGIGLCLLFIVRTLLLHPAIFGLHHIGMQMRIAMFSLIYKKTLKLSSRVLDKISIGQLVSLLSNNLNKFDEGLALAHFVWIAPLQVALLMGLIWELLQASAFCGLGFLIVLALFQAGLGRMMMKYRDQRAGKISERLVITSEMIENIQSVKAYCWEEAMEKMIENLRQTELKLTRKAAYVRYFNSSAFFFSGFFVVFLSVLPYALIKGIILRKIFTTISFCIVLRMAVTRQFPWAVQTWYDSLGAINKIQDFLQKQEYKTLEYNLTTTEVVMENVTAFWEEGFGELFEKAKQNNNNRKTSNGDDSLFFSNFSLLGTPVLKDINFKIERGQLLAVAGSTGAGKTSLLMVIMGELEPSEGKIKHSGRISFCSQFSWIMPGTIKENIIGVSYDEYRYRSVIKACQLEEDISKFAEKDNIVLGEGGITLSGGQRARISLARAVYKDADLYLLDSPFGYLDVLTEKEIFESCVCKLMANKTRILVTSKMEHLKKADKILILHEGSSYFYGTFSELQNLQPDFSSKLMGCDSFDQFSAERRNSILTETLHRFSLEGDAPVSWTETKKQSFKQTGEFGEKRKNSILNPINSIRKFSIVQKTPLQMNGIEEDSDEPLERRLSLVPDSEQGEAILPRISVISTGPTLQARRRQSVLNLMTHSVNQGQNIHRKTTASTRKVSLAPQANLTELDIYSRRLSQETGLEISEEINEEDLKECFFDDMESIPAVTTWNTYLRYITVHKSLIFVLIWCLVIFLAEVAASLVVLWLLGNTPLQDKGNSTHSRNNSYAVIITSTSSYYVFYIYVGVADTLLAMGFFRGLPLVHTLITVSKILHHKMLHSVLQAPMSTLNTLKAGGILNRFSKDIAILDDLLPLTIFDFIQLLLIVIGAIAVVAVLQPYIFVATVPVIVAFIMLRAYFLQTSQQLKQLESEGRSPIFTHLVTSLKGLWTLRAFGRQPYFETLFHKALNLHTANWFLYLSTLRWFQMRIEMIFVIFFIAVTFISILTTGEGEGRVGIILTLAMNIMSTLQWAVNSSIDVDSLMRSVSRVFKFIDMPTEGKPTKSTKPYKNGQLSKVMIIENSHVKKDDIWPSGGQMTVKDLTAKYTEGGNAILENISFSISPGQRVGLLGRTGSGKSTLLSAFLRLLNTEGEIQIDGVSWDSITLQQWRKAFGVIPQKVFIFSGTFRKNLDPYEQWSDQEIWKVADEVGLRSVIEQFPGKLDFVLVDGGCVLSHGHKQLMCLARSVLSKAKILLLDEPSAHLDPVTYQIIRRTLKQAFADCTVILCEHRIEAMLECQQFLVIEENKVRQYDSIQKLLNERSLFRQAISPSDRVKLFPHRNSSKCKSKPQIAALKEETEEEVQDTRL

EC50	SMILES
< 10 µM	O=C(Nc1ccccc1-c1cccc(F)c1)c1c[nH]c2ccccc2c1=O [Compound 277, N-[2-(3-fluorophenyl)phenyl]-4-oxo-1H-quinoline-3-carboxamide]
< 10 µM	Nc1cc(Cl)cc(NC(=O)c2c[nH]c3ccccc3c2=O)c1 [Compound 131, N-(3-amino-5-chloro-phenyl)-4-oxo-1H-quinoline-3-carboxamide]

Same assay, conditions: Table 3; assay not given; read-out: % Activity (% Efficacy, relative efficacy)

Emax	SMILES
25 to 100%	Cc1ccc(-c2ccccc2NC(=O)c2c[nH]c3ccccc3c2=O)cc1 [Compound 181, 4-oxo-N-[2-(p-tolyl)phenyl]-1H-quinoline-3-carboxamide]
25 to 100%	CCOC(=O)c1c(NC(=O)c2c[nH]c3ccccc3c2=O)ccc2cc[nH]c12 [Compound 412, 6-[(4-oxo-1H-quinolin-3-yl)carbonylamino]-1H-indole-7-carboxylic acid ethyl ester]
25 to 100%	CC(C)(C)c1cc(C(C)(C)C)c(NC(=O)c2c[nH]c3cccc(O)c3c2=O)cc1O [Compound 464, 5-hydroxy-N-(5-hydroxy-2,4-ditert-butyl-phenyl)-4-oxo-1H-quinoline-3-carboxamide]
25 to 100%	O=C(Nc1ccc(N2CCCC2)cc1C(F)(F)F)c1c[nH]c2ccc(F)cc2c1=O [Compound 562, 6-fluoro-4-oxo-N-[4-pyrrolidin-1-yl-2-(trifluoromethyl)phenyl]-1H-quinoline-3-carboxamide]
25 to 100%	O=C(Nc1cc(C(F)(F)F)ccc1C(F)(F)F)c1c[nH]c2ccccc2c1=O [Compound 630, N-[2,5-bis(trifluoromethyl)phenyl]-4-oxo-1H-quinoline-3-carboxamide]
> 100%	O=C(Nc1ccccc1-c1cccc(F)c1)c1c[nH]c2ccccc2c1=O [Compound 277, N-[2-(3-fluorophenyl)phenyl]-4-oxo-1H-quinoline-3-carboxamide]
25 to 100%	CC(C)(C)c1cc(C(C)(C)C)c(NC(=O)c2c[nH]c3cc(C#N)ccc3c2=O)cc1O [Compound 548, 7-cyano-N-(5-hydroxy-2,4-ditert-butyl-phenyl)-4-oxo-1H-quinoline-3-carboxamide]
25 to 100%	O=C(Nc1cc(O)cc(C(F)(F)F)c1)c1c[nH]c2ccc(F)cc2c1=O [Compound 574, 6-fluoro-N-[3-hydroxy-5-(trifluoromethyl)phenyl]-4-oxo-1H-quinoline-3-carboxamide]
> 100%	O=C(Nc1ccccc1-n1cccc1)c1c[nH]c2ccccc2c1=O [Compound 293, 4-oxo-N-[2-(1H-pyrrol-1-yl)phenyl]-1H-quinoline-3-carboxamide]
25 to 100%	Nc1cc(Cl)cc(NC(=O)c2c[nH]c3ccccc3c2=O)c1 [Compound 131, N-(3-amino-5-chloro-phenyl)-4-oxo-1H-quinoline-3-carboxamide]
< 25%	O=C(Nc1ccc(C(F)(F)F)nc1)c1c[nH]c2ccccc2c1=O [Compound 197, 4-oxo-N-[6-(trifluoromethyl)-3-pyridyl]-1H-quinoline-3-carboxamide]
< 25%	CC1(c2ccc(NC(=O)c3c[nH]c4cccc(O)c4c3=O)cc2O)CCCCC1 [Compound 606, 5-hydroxy-N-[3-hydroxy-4-(1-methylcyclohexyl)-phenyl]-4-oxo-1H-quinoline-3-carboxamide]
> 100%	O=C(Nc1cc(O)c(C2CCCCC2)cc1C(F)(F)F)c1c[nH]c2ccccc2c1=O [Compound 619, N-[4-cyclohexyl-5-hydroxy-2-(trifluoromethyl)phenyl]-4-oxo-1H-quinoline-3-carboxamide]
25 to 100%	O=C(Nc1cccc(Oc2ccccc2)c1)c1c[nH]c2ccccc2c1=O [Compound 87, 4-oxo-N-(3-phenoxyphenyl)-1H-quinoline-3-carboxamide]
25 to 100%	O=C(Nc1cc2[nH]ccc2cc1C(F)(F)F)c1c[nH]c2ccccc2c1=O [Compound 234, 4-oxo-N-[5-(trifluoromethyl)-1H-indol-6-yl]-1H-quinoline-3-carboxamide]
25 to 100%	COc1cccc(OC)c1-c1ccccc1NC(=O)c1c[nH]c2ccccc2c1=O [Compound 49, N-[2-(2,6-dimethoxyphenyl)phenyl]-4-oxo-1H-quinoline-3-carboxamide]
25 to 100%	COc1cc(NC(=O)c2c[nH]c3ccccc3c2=O)c(C(F)(F)F)cc1C(C)(C)C [Compound 421, N-[5-methoxy-4-tert-butyl-2-(trifluoromethyl)phenyl]-4-oxo-1H-quinoline-3-carboxamide]
25 to 100%	CCOC(=O)Nc1ccc(C(C)C)c(NC(=O)c2c[nH]c3ccccc3c2=O)c1 [Compound 269, [4-isopropyl-3-[(4-oxo-1H-quinolin-3-yl)carbonylamino]phenyl]aminoformic acid ethyl ester]
25 to 100%	CC(C)Cc1ccc(-c2ccccc2NC(=O)c2c[nH]c3ccccc3c2=O)cc1 [Compound 391, N-[2-(4-isobutylphenyl)phenyl]-4-oxo-1H-quinoline-3-carboxamide]
25 to 100%	O=C(Nc1ccccc1-c1ccc(OC(F)(F)F)cc1)c1c[nH]c2ccccc2c1=O [Compound 388, 4-oxo-N-[2-[4-(trifluoromethoxy)phenyl]phenyl]-1H-quinoline-3-carboxamide]
> 100%	COc1ccc2[nH]cc(C(=O)Nc3cc4[nH]ccc4cc3C(C)(C)C)c(=O)c2c1 [Compound 533, 6-methoxy-4-oxo-N-(5-tert-butyl-1H-indol-6-yl)-1H-quinoline-3-carboxamide]

Emax	SMILES
25 to 100%	CNc1cc(NC(=O)c2c[nH]c3ccccc3c2=O)ccc1C(C)(C)C [Compound 484, N-(3-methylamino-4-tert-butyl-phenyl)-4-oxo-1H-quinoline-3-carboxamide]
25 to 100%	O=C(Nc1ccccc1-c1cc(F)ccc1F)c1c[nH]c2ccccc2c1=O [Compound 384, N-[2-(2,5-difluorophenyl)phenyl]-4-oxo-1H-quinoline-3-carboxamide]
25 to 100%	O=C(Nc1ccc(Oc2cccnc2)cc1)c1c[nH]c2ccccc2c1=O [Compound 614, 4-oxo-N-[4-(3-pyridyloxy)phenyl]-1H-quinoline-3-carboxamide]
25 to 100%	N#CCc1ccccc1NC(=O)c1c[nH]c2ccccc2c1=O [Compound 308, N-[2-(cyanomethyl)phenyl]-4-oxo-1H-quinoline-3-carboxamide]
25 to 100%	CN(C)CCNC(=O)c1ccc(-c2cc3cc[nH]c3cc2NC(=O)c2c[nH]c3ccccc3c2=O)cc1 [Compound 347, N-[5-[4-(2-dimethylaminoethylcarbamoyl)phenyl]-1H-indol-6-yl]-4-oxo-1H-quinoline-3-carboxamide]
25 to 100%	CCCc1ccc(NC(=O)c2c[nH]c3ccccc3c2=O)cc1N [Compound 160, N-(3-amino-4-propyl-phenyl)-4-oxo-1H-quinoline-3-carboxamide]
25 to 100%	CC1(C)CCNc2cc(NC(=O)c3c[nH]c4ccccc4c3=O)ccc21 [Compound 300, N-(4,4-Dimethyl-1,2,3,4-tetrahydroquinolin-7-yl)-4-oxo-1H-quinoline-3-carboxamide]
25 to 100%	CC1(c2cc(F)c(NC(=O)c3c[nH]c4ccc(F)cc4c3=O)cc2O)CCCCC1 [Compound 218, 6-fluoro-N-[2-fluoro-5-hydroxy-4-(1-methylcyclohexyl)-phenyl]-4-oxo-1H-quinoline-3-carboxamide]
25 to 100%	COCCOC(=O)NCC(C)(C)c1ccc(NC(=O)c2c[nH]c3ccccc3c2=O)cc1 [Compound 28, [2-methyl-2-[4-[(4-oxo-1H-quinolin-3-yl)carbonylamino]phenyl]-propyl]aminoformic acid 2-methoxyethyl ester]
25 to 100%	O=C(Nc1cc(O)cc(C(F)(F)F)c1)c1c[nH]c2ccccc2c1=O [Compound 563, N-[3-hydroxy-5-(trifluoromethyl)phenyl]-4-oxo-1H-quinoline-3-carboxamide]
< 25%	COc1cc(C#N)c(NC(=O)c2c[nH]c3ccccc3c2=O)cc1OC [Compound 106, N-(2-cyano-4,5-dimethoxy-phenyl)-4-oxo-1H-quinoline-3-carboxamide]
< 25%	Cc1cccc2c(=O)c(C(=O)Nc3cc(O)c(C(C)(C)C)cc3F)c[nH]c12 [Compound 625, N-(2-fluoro-5-hydroxy-4-tert-butyl-phenyl)-8-methyl-4-oxo-1H-quinoline-3-carboxamide]
25 to 100%	COc1ccc(NC(=O)c2c[nH]c3ccccc3c2=O)c(OC)n1 [Compound 193, N-(2,6-dimethoxy-3-pyridyl)-4-oxo-1H-quinoline-3-carboxamide]
25 to 100%	CC(C)(C)c1cc2cc[nH]c2cc1NC(=O)c1c[nH]c2ccc(S(=O)(=O)N3CCCC3)cc2c1=O [Compound 274, 4-oxo-6-pyrrolidin-1-ylsulfonyl-N-(5-tert-butyl-1H-indol-6-yl)-1H-quinoline-3-carboxamide]
25 to 100%	O=C(Nc1ccc(N2CCC[C@@H]2C(=O)O)cc1C(F)(F)F)c1c[nH]c2ccccc2c1=O [Compound 698, (R)-1-[4-[(4-oxo-1H-quinolin-3-yl)carbonylamino]-3-(trifluoromethyl)phenyl]pyrrolidine-2-carboxylic acid]
25 to 100%	CC(C)(C)c1cc(C(C)(C)C)c(NC(=O)c2c[nH]c3ccc(Cl)cc3c2=O)cc1O [Compound 623, 6-chloro-N-(5-hydroxy-2,4-ditert-butyl-phenyl)-4-oxo-1H-quinoline-3-carboxamide]
25 to 100%	O=C(Nc1ccccc1)c1c[nH]c2cc(Cl)ccc2c1=O [Compound 411, 7-chloro-4-oxo-N-phenyl-1H-quinoline-3-carboxamide]
25 to 100%	CC(C)(C)c1cc(C(C)(C)C)c(NC(=O)c2c[nH]c3c(Cl)cccc3c2=O)cc1O [Compound 663, 8-chloro-N-(5-hydroxy-2,4-ditert-butyl-phenyl)-4-oxo-1H-quinoline-3-carboxamide]
25 to 100%	CC1(c2ccc(NC(=O)c3c[nH]c4cccc(O)c4c3=O)cc2)COC1 [Compound 529, 5-hydroxy-N-[4-(3-methyloxetan-3-yl)phenyl]-4-oxo-1H-quinoline-3-carboxamide]
25 to 100%	O=C(Nc1ccc(OC(F)(F)F)cc1Cl)c1c[nH]c2ccccc2c1=O [Compound 628, N-[2-chloro-4-(trifluoromethoxy)phenyl]-4-oxo-1H-quinoline-3-carboxamide]
25 to 100%	O=C(Nc1cc(O)c(C2CCCC2)cc1C#CCO)c1c[nH]c2ccccc2c1=O [Compound 512, N-[4-cyclopentyl-5-hydroxy-2-(3-hydroxyprop-1-ynyl)phenyl]-4-oxo-1H-quinoline-3-carboxamide]
